Data from ChEMBL document CHEMBL5241112, “Insights into the recent progress in the medicinal chemistry of pyranopyrimidine analogs” (RSC Med Chem, 2022).
pIC50: −log10 of the molar value. Converted amounts (≈) assume the structure as drawn.

Key:
[1] = test system: Mycobacterium tuberculosis; test: Antitubercular activity against Mycobacterium tuberculosis H37Rv assessed as bacterial growth inhibition at 250 ug/ml; assay type: functional
[2] = test system: Mycobacterium tuberculosis; test: Antitubercular activity against Mycobacterium tuberculosis H37Rv assessed as bacterial growth inhibition at 100 ug/ml; assay type: functional
Clostridium tetani = test: Antibacterial activity against Clostridium tetani MTCC 449 assessed as bacterial growth inhibition by broth microdilution method; assay type: functional
Candida albicans = test: Antifungal activity against Candida albicans MTCC 3008 assessed as fungal growth inhibition by broth microdilution method; assay type: functional
Plasmodium falciparum = test: microbe, parasite or virus in culture
Aspergillus fumigatus = test: Antifungal activity against Aspergillus fumigatus MTCC 227 assessed as fungal growth inhibition by broth microdilution method; assay type: functional
[3] = Antioxidant activity assessed as DPPH radical scavenging activity at 100 ug/ml incubated for 30 mins by spectrophotometric analysis; assay type: functional; details: dose 100.0 µg/ml
[4] = Antioxidant activity assessed as DPPH radical scavenging activity at 75 ug/ml incubated for 30 mins by spectrophotometric analysis; assay type: functional; details: dose 75.0 µg/ml
[5] = Antioxidant activity assessed as DPPH radical scavenging activity at 50 ug/ml incubated for 30 mins by spectrophotometric analysis; assay type: functional; details: dose 50.0 µg/ml
HepG2 [6] = test: Anticancer activity against human HepG2 cells assessed as reduction in cell viability; assay type: functional, cell-based
MCF7 [7] = test: Anticancer activity against human MCF7 cells assessed as reduction in cell viability; assay type: functional, cell-based
DNA topoisomerase II = DNA topoisomerase II (Homo sapiens, UniProt P11388+Q02880); test: Inhibition of DNA topoisomerase 2 (unknown origin); assay type: protein assay
HCT-116 [8] = test: cells; details: Homo sapiens
DNA = test: Binding affinity to DNA (unknown origin) assessed as DNA intercalation; assay type: nucleic-acid assay
[9] = test system: Human immunodeficiency virus 2; test: Antiviral activity against HIV2 ROD infected in human MT4 cells assessed as reduction in virus-induced cytopathic effect by MTT assay; assay type: functional, organism-based; details: Human immunodeficiency virus 2, ROD
[10] = test system: Human immunodeficiency virus 1; test: Antiviral activity against HIV1 IIIB infected in human MT4 cells assessed as reduction in virus-induced cytopathic effect by MTT assay; assay type: functional, organism-based; details: Human immunodeficiency virus 1, IIIB
Staphylococcus aureus [11] = test: Antimicrobial activity against Staphylococcus aureus assessed as diameter of inhibition zone at 1.2 mg/ml incubated for 12 hrs by agar disk diffusion method; assay type: functional; details: read-out: DIZ
Escherichia coli [12] = test: Antimicrobial activity against Escherichia coli assessed as diameter of inhibition zone at 5.0 mg/ml incubated for 12 hrs by agar disk diffusion method; assay type: functional; details: read-out: DIZ
Bacillus cereus [13] = test: Antimicrobial activity against Bacillus cereus assessed as diameter of inhibition zone at 1.2 mg/ml incubated for 12 hrs by agar disk diffusion method; assay type: functional; details: read-out: DIZ
Bacillus cereus [14] = test: Antimicrobial activity against Bacillus cereus assessed as diameter of inhibition zone at 2.5 mg/ml incubated for 12 hrs by agar disk diffusion method; assay type: functional; details: read-out: DIZ
Escherichia coli [15] = test: Antimicrobial activity against Escherichia coli assessed as diameter of inhibition zone at 2.5 mg/ml incubated for 12 hrs by agar disk diffusion method; assay type: functional; details: read-out: DIZ
Pseudomonas aeruginosa [16] = test: Antimicrobial activity against Pseudomonas aeruginosa assessed as diameter of inhibition zone at 1.2 mg/ml incubated for 12 hrs by agar disk diffusion method; assay type: functional; details: read-out: DIZ
Pseudomonas aeruginosa [17] = test: Antimicrobial activity against Pseudomonas aeruginosa assessed as diameter of inhibition zone at 5.0 mg/ml incubated for 12 hrs by agar disk diffusion method; assay type: functional; details: read-out: DIZ
Bacillus cereus [18] = test: Antimicrobial activity against Bacillus cereus assessed as diameter of inhibition zone at 5.0 mg/ml incubated for 12 hrs by agar disk diffusion method; assay type: functional; details: read-out: DIZ
Staphylococcus aureus [19] = test: Antimicrobial activity against Staphylococcus aureus assessed as diameter of inhibition zone at 2.5 mg/ml incubated for 12 hrs by agar disk diffusion method; assay type: functional; details: read-out: DIZ
Staphylococcus aureus [20] = test: Antimicrobial activity against Staphylococcus aureus assessed as diameter of inhibition zone at 5.0 mg/ml incubated for 12 hrs by agar disk diffusion method; assay type: functional; details: read-out: DIZ
Pseudomonas aeruginosa [21] = test: Antimicrobial activity against Pseudomonas aeruginosa assessed as diameter of inhibition zone at 2.5 mg/ml incubated for 12 hrs by agar disk diffusion method; assay type: functional; details: read-out: DIZ
Escherichia coli [22] = test: Antimicrobial activity against Escherichia coli assessed as diameter of inhibition zone at 1.2 mg/ml incubated for 12 hrs by agar disk diffusion method; assay type: functional; details: read-out: DIZ
[23] = Antioxidant activity assessed as DPPH radical scavenging activity at 25 ug/ml incubated for 30 mins by spectrophotometric analysis; assay type: functional; details: dose 25.0 µg/ml
Pseudomonas aeruginosa [24] = test: Antibacterial activity against Pseudomonas aeruginosa MTCC 2453 assessed as bacterial growth inhibition; assay type: functional
Escherichia coli [25] = test: Antibacterial activity against Escherichia coli MTCC 739 assessed as bacterial growth inhibition; assay type: functional
Staphylococcus aureus [26] = test: Antibacterial activity against Staphylococcus aureus MLS-16 MTCC 2940 assessed as bacterial growth inhibition; assay type: functional
Micrococcus luteus = test: Antibacterial activity against Micrococcus luteus MTCC 2470 assessed as bacterial growth inhibition; assay type: functional
Raoultella planticola = test: Antibacterial activity against Raoultella planticola MTCC 530 assessed as bacterial growth inhibition; assay type: functional; details: Klebsiella planticola
Bacillus subtilis = test: Antibacterial activity against Bacillus subtilis MTCC 121 assessed as bacterial growth inhibition; assay type: functional
HCT-116 [27] = test: Anticancer activity against human HCT-116 cells assessed as reduction in cell viability incubated for 24 hrs by MTT colorimetric assay; assay type: functional, cell-based; details: HCT-116, 24 h
HepG2 [28] = test: Anticancer activity against human HepG2 cells assessed as reduction in cell viability incubated for 24 hrs by MTT colorimetric assay; assay type: functional, cell-based; details: HepG2, 24 h
A549 = test: Anticancer activity against human A549 cells assessed as reduction in cell viability incubated for 24 hrs by MTT assay; assay type: functional, cell-based; details: A549, 24 h
PC-3 = test: Anticancer activity against human PC-3 cells assessed as reduction in cell viability; assay type: functional, cell-based
MCF7 [29] = test: Anticancer activity against human MCF7 cells assessed as reduction in cell viability incubated for 24 hrs by MTT colorimetric assay; assay type: functional, cell-based; details: MCF7, 24 h

## Cc1nn(-c2ccccc2)c(-n2ccnc2)c1C1C(C#N)=C(N)Oc2[nH]c(=S)[nH]c(=O)c21 (configuration not stated)
[1]
  inhibition at 250 µg/mL: 37%
[2]
  inhibition at 100 µg/mL: 30%
Clostridium tetani
  MIC: 100 µg/mL (≈ 225 µM)
Candida albicans
  MIC: 500 µg/mL (≈ 1120 µM)
Plasmodium falciparum
  IC50: 0.97 µg/mL (≈ 2.18 µM)
Aspergillus fumigatus
  MIC: 200 µg/mL (≈ 450 µM)

## O=c1c(C2c3c(-c4ccccc4)n[nH]c3Oc3[nH]c(=S)[nH]c(=S)c32)coc2ccccc12 (configuration not stated)
[3]
  Activity: 86.4%
[4]
  Activity: 84.3%
[5]
  Activity: 66.5%

## COc1ccc(C2c3c([nH]c(=O)[nH]c3=O)Oc3ncn(-c4ccccc4O)c(=N)c32)cc1 (configuration not stated)
HepG2 [6]
  pIC50: 5.68
MCF7 [7]
  pIC50: 5.61
DNA topoisomerase II
  IC50: 0.776 µM
HCT-116 [8]
  pIC50: 5.58
DNA
  pIC50: 4.52

## Cc1cn([C@H]2C[C@H](N=[N+]=[N-])[C@@H](CO)O2)c(=O)[nH]c1=O [ZIDOVUDINE]
[9]
  EC50: 0.94 ng/mL (≈ 0.00352 µM)
[10]
  EC50: 2.2 ng/mL (≈ 0.00823 µM)

## COc1ccc(C2C(C#N)=C(N)Oc3[nH]c(=S)[nH]c(=O)c32)cc1 (configuration not stated)
Staphylococcus aureus [11]
  zone of inhibition at 1200 µg/mL: 12 mm
Escherichia coli [12]
  zone of inhibition at 5000 µg/mL: 30 mm
Bacillus cereus [13]
  zone of inhibition at 1200 µg/mL: 14 mm
Bacillus cereus [14]
  zone of inhibition at 2500 µg/mL: 18 mm
Escherichia coli [15]
  zone of inhibition at 2500 µg/mL: 20 mm
Pseudomonas aeruginosa [16]
  zone of inhibition at 1200 µg/mL: 12 mm
Pseudomonas aeruginosa [17]
  zone of inhibition at 5000 µg/mL: 30 mm
Bacillus cereus [18]
  zone of inhibition at 5000 µg/mL: 22 mm
Staphylococcus aureus [19]
  zone of inhibition at 2500 µg/mL: 16 mm
Staphylococcus aureus [20]
  zone of inhibition at 5000 µg/mL: 20 mm
Pseudomonas aeruginosa [21]
  zone of inhibition at 2500 µg/mL: 17 mm
Escherichia coli [22]
  zone of inhibition at 1200 µg/mL: 14 mm

## O=c1c(C2c3c(-c4ccccc4)n[nH]c3Oc3[nH]c(=S)n(-c4ccccc4)c(=S)c32)coc2ccccc12 (configuration not stated)
[23]
  Activity: 61.6%
[5]
  Activity: 66.4%

## O=c1oc2ccccc2c2c1C(c1ccccc1)c1c(Nc3ccc([N+](=O)[O-])cc3)ncnc1O2 (configuration not stated)
Pseudomonas aeruginosa [24]
  MIC: ≤ 125 µg/mL
Escherichia coli [25]
  MIC: 31.2 µg/mL (≈ 67.2 µM)
Staphylococcus aureus [26]
  MIC: ≤ 125 µg/mL
Micrococcus luteus
  MIC: 31.2 µg/mL (≈ 67.2 µM)
Raoultella planticola
  MIC: 31.2 µg/mL (≈ 67.2 µM)
Bacillus subtilis
  MIC: ≤ 125 µg/mL

## COc1cccc2c1C(=O)c1c(O)c3c(c(O)c1C2=O)C[C@@](O)(C(=O)CO)C[C@@H]3O[C@H]1C[C@H](N)[C@H](O)[C@H](C)O1 [DOXORUBICIN]
HCT-116 [27]
  pIC50: 6.33
HepG2 [28]
  pIC50: 6.33
HepG2 [6]
  pIC50: 5.10
DNA topoisomerase II
  IC50: 0.94 µM
A549
  pIC50: 6.85
HCT-116 [8]
  pIC50: 5.58
PC-3
  IC50: 0.467 µg/mL (≈ 0.859 µM)
MCF7 [29]
  pIC50: 6.33

## CCOC(=O)C1=C(N)Oc2[nH]c(=O)[nH]c(=O)c2C1c1cccc([N+](=O)[O-])c1 (configuration not stated)
HepG2 [6]
  IC50: 0.25 µg/mL
HCT-116 [8]
  IC50: 0.25 µg/mL
PC-3
  IC50: 0.25 µg/mL (≈ 0.668 µM)
